Calls of active or inactive are those of the source. No cut-off for these calls is given here.
Columns and labels:
[1] = biological target: Transient receptor potential cation channel subfamily M member 7 (Mus musculus) (UniProt Q923J1); test: Inhibition of Tet-induced Flag-tagged mouse TRPM7 expressed in HEK293 cells assessed as reduction in channel currents at 2 mM using compound applied extracellularly by whole cell patch clamp assay; type: cell-based
U2OS = test: Inhibition of cell proliferation of human U2OS cells at 10 uM incubated for 48 to 96 hrs; type: functional
A-375 = test: Inhibition of cell proliferation of human A375 cells at 10 uM incubated for 48 to 96 hrs; type: functional
[2] = Inhibition of cell proliferation of human WERI cells at 10 uM incubated for 48 to 96 hrs; type: functional
[3] = biological target: Transient receptor potential cation channel subfamily M member 7 (Rattus norvegicus) (UniProt Q925B3); test: Inhibition of TRPM7 in rat H9C2 cells exposed to oxygen glucose deprivation condition for 1 to 6 hrs assessed as reduction in TRPM7-mediated anoxic cell death in presence of 1 uM nifedipine by propidium iodide uptake assay; type: cell-based
Sequence of Transient receptor potential cation channel subfamily M member 7 (Rattus norvegicus) (Q925B3 whole entry): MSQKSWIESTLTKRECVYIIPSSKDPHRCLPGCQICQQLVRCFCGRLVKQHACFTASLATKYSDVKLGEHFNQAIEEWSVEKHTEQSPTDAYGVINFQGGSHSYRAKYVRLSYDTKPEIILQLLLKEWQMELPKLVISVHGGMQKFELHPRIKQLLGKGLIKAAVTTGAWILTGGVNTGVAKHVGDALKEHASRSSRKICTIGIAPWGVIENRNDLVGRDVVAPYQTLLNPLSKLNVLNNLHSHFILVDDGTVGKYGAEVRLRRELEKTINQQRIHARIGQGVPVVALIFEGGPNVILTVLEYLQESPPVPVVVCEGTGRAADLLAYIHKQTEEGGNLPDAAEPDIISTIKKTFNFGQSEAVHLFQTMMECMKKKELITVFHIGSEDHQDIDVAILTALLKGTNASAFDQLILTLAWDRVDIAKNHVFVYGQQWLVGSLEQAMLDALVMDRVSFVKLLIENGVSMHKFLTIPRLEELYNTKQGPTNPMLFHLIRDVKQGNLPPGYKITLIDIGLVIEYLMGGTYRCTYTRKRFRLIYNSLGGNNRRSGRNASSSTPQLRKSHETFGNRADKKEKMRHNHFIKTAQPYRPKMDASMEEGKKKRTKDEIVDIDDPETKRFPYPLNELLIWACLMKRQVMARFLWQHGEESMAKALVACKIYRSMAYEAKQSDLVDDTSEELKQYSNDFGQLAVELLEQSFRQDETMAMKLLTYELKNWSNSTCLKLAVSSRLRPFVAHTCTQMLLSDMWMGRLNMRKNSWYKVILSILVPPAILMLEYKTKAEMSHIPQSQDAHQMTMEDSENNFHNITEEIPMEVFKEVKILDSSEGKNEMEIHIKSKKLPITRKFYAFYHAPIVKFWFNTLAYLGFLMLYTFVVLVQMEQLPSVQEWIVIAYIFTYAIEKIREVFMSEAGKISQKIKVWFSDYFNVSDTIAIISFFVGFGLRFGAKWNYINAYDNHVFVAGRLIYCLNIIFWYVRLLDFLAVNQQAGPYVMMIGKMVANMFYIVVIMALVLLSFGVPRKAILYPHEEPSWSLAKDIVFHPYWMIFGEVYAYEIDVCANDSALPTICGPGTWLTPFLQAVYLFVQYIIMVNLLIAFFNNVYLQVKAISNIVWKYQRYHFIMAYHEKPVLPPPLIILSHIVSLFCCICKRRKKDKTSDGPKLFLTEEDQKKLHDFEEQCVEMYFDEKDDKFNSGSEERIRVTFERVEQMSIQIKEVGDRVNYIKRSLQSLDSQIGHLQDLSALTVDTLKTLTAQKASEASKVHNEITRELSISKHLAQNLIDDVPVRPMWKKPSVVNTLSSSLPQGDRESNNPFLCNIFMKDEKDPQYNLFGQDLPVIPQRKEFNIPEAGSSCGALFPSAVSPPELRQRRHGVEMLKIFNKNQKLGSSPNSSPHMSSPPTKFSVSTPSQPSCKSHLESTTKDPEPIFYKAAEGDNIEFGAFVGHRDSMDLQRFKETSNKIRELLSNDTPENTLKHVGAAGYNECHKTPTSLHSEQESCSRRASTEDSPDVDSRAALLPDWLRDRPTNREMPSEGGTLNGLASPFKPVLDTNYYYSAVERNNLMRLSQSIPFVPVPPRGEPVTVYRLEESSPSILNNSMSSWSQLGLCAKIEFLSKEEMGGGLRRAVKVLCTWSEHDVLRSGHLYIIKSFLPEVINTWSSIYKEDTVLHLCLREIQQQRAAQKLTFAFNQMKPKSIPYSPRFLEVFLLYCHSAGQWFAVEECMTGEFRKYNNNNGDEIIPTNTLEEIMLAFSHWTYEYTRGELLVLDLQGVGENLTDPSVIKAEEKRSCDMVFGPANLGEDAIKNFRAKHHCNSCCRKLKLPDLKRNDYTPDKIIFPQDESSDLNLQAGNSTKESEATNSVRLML

[4] = Inhibition of cell proliferation of human […] cells at 10 uM incubated for 48 to 96 hrs; type: functional; details: RXF 393
[5] = biological target: Transient receptor potential cation channel subfamily M member 7 (Mus musculus) (UniProt Q923J1); test: Inhibition of TRPM7 in mouse primary neuronal cells exposed to oxygen glucose deprivation condition for 1 to 3 hrs assessed as reduction in TRPM7-mediated anoxic cell death dosed before oxygen glucose deprivation condition by propidium iodide uptake assay; details: Primary neuron
SW13 [6] = test: Inhibition of cell proliferation of human SW13 cells at 1.25 to 10 uM incubated for 72 hrs by SRB assay; type: functional, cell-based
WERI [7] = test: Inhibition of cell migration of human WERI cells assessed as reduction in cell ability to migrate away from retina in cultured explants at 1 uM; type: functional, cell-based
[8] = biological target: Transient receptor potential cation channel subfamily M member 7 (Mus musculus) (UniProt Q923J1); test: Inhibition of Tet-induced Flag-tagged mouse TRPM7 expressed in HEK293 cells assessed as reduction in channel currents at 0.3 to 30 uM by whole cell patch clamp assay; type: cell-based
Y79 [9] = test: Inhibition of cell proliferation of human Y79 cells at 1 uM to 7.5 uM by MTT assay; type: functional, cell-based
RXF 393 = test: Antitumor activity against human RXF393 cells implanted in mouse assessed as inhibition of tumor growth at 20 mg/kg, iv qd; type: functional, organism-based
[10] = Inhibition of cell proliferation of human HCT116 cells at 10 uM incubated for 48 to 96 hrs; type: functional; details: HCT-116
[11] = Cytotoxic activity against mouse primary cortical neurons assessed as reduction in cell viability at 1 to 7.5 uM incubated for 48 to 72 hrs by MTT assay; type: cell-based; details: cerebral cortex neuron
[12] = Inhibition of cell proliferation of mouse B16-F1 cells at 10 uM incubated for 48 to 96 hrs; type: functional
NCI-H292 = test: Inhibition of cell proliferation of human NCI-H292 cells at 10 uM incubated for 48 to 96 hrs; type: functional
[13] = biological target: Transient receptor potential cation channel subfamily M member 7 (Rattus norvegicus) (UniProt Q925B3); test: Inhibition of TRPM7 in rat H9C2 cells assessed as reduction in channel currents at 0.3 to 30 uM by whole cell patch clamp assay; type: cell-based
[14] = biological target: Transient receptor potential cation channel subfamily M member 7 (Mus musculus) (UniProt Q923J1); test: Inhibition of TRPM7 in mouse mouse primary cortical neurons exposed to 2 hrs oxygen glucose deprivation condition assessed as reduction in TRPM7-mediated anoxic cell death at 0.625 to 5 uM pre-incubated for 24 hrs before OGD measured after 20 hrs by propidium iodide uptake assay; type: cell-based; details: Cerebral cortex neuron
HeLa [15] = test: Inhibition of cell proliferation of human HeLa cells at 1.25 to 10 uM incubated for 48 hrs by BrdU incorporation assay; type: functional, cell-based
[16] = Toxicity in mouse assessed as maximum tolerated dose; type: organism-based; details: in vivo
B16-F10 [17] = test: Inhibition of cell proliferation of mouse B16F10 cells at 1.25 to 10 uM incubated for 72 hrs by SRB assay; type: functional, cell-based
B16-F10 [18] = test: Antitumor activity against mouse B16F10 cells implanted in mouse assessed as inhibition of tumor growth at 20 mg/kg, iv qd; type: functional, organism-based
[19] = biological target: Transient receptor potential cation channel subfamily M member 7 (Mus musculus) (UniProt Q923J1); test: Inhibition of Tet-induced Flag-tagged mouse TRPM7 expressed in HEK293 cells assessed as reduction in channel currents at 2 mM using compound applied intracellularly by whole cell patch clamp assay; type: cell-based
Y79 [20] = test: Reduction in cell viability in human Y79 cells on rat retinal explants at 5 uM; type: functional, cell-based
SW13 [21] = test: Inhibition of cell proliferation of human SW13 cells at 10 uM incubated for 48 to 96 hrs; type: functional
[22] = biological target: Transient receptor potential cation channel subfamily M member 7 (Mus musculus) (UniProt Q923J1); test: Inhibition of Tet-induced Flag-tagged mouse TRPM7 expressed in HEK293 cells assessed as inhibition of channel-mediated cell death in presence of Mg2+ incubated for 24 to 48 hrs by propidium iodide uptake assay; type: cell-based; parameters: concentration or dose not given beside the values
[23] = Inhibition of cell proliferation of human DMS456 cells at 10 uM incubated for 48 to 96 hrs; type: functional
Y79 [24] = test: Inhibition of cell proliferation of human Y79 cells at 10 uM incubated for 48 to 96 hrs; type: functional
MDA-MB-231 [25] = test: Inhibition of cell proliferation of human MDA-MB-231 cells at 1.25 to 10 uM incubated for 72 hrs by SRB assay; type: functional, cell-based
WERI [26] = test: Inhibition of cell proliferation of human WERI cells at 0.25 uM to 10 uM by MTT assay; type: functional, cell-based
[27] = Inhibition of cell proliferation of mouse NIH/3T3 cells at 1.25 to 10 uM incubated for 72 hrs by propidium iodide staining assay; type: cell-based; details: nih3t3, 72 h
B16-F1 = test: Inhibition of cell proliferation of mouse B16-F1 cells at 1.25 to 10 uM incubated for 72 hrs by SRB assay; type: functional, cell-based
[28] = Inhibition of cell proliferation of human DMS53 cells at 10 uM incubated for 48 to 96 hrs; type: functional; details: DMS-53
SW13 [29] = test: Inhibition of cell proliferation of human SW13 cells at 1.25 to 10 uM incubated for 48 hrs by BrdU incorporation assay; type: functional, cell-based
[30] = biological target: Transient receptor potential cation channel subfamily M member 7 (Mus musculus) (UniProt Q923J1); test: Inhibition of TRPM7 in mouse mouse primary cortical neurons exposed to 2 hrs oxygen glucose deprivation condition assessed as reduction in TRPM7-mediated anoxic cell death measured after 20 hrs by propidium iodide uptake assay; type: cell-based; details: Cerebral cortex neuron
MDA-MB-231 [31] = test: Inhibition of cell proliferation of human MDA-MB-231 cells at 10 uM incubated for 48 to 96 hrs; type: functional
MCF7 = test: Inhibition of cell proliferation of human MCF7 cells at 10 uM incubated for 48 to 96 hrs; type: functional
[32] = biological target: Transient receptor potential cation channel subfamily M member 7 (Mus musculus) (UniProt Q923J1); test: Inhibition of TRPM7 in mouse primary neuronal cells exposed to oxygen glucose deprivation condition for 1 to 3 hrs assessed as reduction in TRPM7-mediated anoxic cell death dosed after oxygen glucose deprivation condition by propidium iodide uptake assay; details: Primary neuron
Y79 [33] = test: Inhibition of cell migration of human Y79 cells assessed as reduction in cell ability to migrate away from retina in cultured explants at 5 uM; type: functional, cell-based
HeLa [34] = test: Inhibition of cell proliferation of human HeLa cells at 10 uM incubated for 48 to 96 hrs; type: functional
[35] = Inhibition of cell proliferation of mouse B16F10 cells at 10 uM incubated for 48 to 96 hrs; type: functional; details: B16-F10

Sequence of Transient receptor potential cation channel subfamily M member 7 (Mus musculus) (Q923J1 whole entry): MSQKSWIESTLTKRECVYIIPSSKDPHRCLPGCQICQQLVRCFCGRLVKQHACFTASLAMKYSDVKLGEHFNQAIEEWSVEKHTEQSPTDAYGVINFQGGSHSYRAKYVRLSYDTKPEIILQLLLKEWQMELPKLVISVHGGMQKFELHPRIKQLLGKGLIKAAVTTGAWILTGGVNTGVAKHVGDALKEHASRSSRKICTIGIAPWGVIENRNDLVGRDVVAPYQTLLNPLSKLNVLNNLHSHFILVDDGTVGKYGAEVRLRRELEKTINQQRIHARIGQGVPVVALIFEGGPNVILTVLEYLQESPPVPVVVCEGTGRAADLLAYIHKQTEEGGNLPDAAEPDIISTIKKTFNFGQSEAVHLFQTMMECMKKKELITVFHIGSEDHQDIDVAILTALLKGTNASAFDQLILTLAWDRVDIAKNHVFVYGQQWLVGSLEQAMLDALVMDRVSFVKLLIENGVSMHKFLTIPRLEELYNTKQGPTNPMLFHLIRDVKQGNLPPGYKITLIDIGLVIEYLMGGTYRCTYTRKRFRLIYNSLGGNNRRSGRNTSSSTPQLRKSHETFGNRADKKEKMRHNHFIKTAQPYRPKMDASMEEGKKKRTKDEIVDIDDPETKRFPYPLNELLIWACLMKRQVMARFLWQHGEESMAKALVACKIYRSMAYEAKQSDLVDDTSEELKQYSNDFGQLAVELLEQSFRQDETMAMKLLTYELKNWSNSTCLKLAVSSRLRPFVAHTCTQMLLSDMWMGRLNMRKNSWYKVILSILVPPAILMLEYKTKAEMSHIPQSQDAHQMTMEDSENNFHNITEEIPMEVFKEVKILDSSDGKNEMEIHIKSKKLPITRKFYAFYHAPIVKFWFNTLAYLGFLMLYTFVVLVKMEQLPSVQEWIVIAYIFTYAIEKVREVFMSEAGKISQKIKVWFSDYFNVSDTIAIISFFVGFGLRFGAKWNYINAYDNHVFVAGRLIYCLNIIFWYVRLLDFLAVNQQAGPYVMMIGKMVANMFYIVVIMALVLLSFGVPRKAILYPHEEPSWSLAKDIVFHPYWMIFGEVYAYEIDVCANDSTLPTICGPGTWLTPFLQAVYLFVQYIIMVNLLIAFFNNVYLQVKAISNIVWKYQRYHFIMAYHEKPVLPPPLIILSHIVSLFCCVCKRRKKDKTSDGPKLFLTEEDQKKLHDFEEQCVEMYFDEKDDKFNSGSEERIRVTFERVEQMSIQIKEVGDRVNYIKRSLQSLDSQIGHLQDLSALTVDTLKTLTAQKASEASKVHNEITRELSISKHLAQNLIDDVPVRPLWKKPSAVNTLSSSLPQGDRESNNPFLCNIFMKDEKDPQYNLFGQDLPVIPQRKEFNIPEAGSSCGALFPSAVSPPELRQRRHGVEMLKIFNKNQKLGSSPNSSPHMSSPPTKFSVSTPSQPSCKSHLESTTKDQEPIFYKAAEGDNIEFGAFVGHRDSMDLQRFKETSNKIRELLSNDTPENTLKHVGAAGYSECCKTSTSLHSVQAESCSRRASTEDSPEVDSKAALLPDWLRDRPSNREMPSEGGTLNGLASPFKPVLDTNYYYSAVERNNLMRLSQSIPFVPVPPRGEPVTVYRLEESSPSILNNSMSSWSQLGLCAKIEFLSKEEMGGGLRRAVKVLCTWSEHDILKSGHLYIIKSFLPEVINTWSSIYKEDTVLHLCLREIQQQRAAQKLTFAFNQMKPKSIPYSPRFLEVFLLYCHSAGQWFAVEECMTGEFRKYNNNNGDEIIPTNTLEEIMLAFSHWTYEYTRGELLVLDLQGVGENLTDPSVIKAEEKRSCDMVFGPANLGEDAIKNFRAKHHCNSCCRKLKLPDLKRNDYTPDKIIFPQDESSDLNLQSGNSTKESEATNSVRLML

Structure (SMILES): COc1cc2c(cc1OC)C(c1sc3ccccc3c1Cl)=NCC2
- inhibition [1]: Active
- inhibition at 10 µM (U2OS): > 20%
- inhibition at 10 µM (A-375): > 20%
- inhibition at 10 µM [2]: > 20%
- inhibition [3]: Active
- inhibition at 10 µM [4]: > 20%
- inhibition [5]: Active
- inhibition (SW13 [6]): Active
- inhibition (WERI [7]): Active
- inhibition [8]: Active
- inhibition (Y79 [9]): Active
- TGI (RXF 393): Active
- inhibition at 10 µM [10]: > 20%
- Activity [11]: Non-toxic
- inhibition at 10 µM [12]: > 20%
- inhibition at 10 µM (NCI-H292): > 20%
- inhibition [13]: Active
- inhibition [14]: Active
- inhibition (HeLa [15]): Active
- MTD [16]: < 20 mg/kg
- inhibition (B16-F10 [17]): Active
- TGI (B16-F10 [18]): Active
- inhibition [19]: inactive
- inhibition (Y79 [20]): Active
- inhibition at 10 µM (SW13 [21]): > 20%
- inhibition [22]: Active
- inhibition at 10 µM [23]: > 20%
- inhibition at 10 µM (Y79 [24]): > 20%
- inhibition (MDA-MB-231 [25]): Active
- inhibition (WERI [26]): Active
- Activity [27]: Non-toxic
- inhibition (B16-F1): Active
- inhibition at 10 µM [28]: > 20%
- inhibition (SW13 [29]): Active
- inhibition [30]: Active
- inhibition at 10 µM (MDA-MB-231 [31]): > 20%
- inhibition at 10 µM (MCF7): > 20%
- inhibition [32]: Active
- inhibition (Y79 [33]): Active
- inhibition at 10 µM (HeLa [34]): > 20%
- inhibition at 10 µM [35]: > 20%
